Assays:
[1] = test system: transplanted paddy rice plant and Bulrush; test: Test Example 5: selectivity between transplanted paddy rice plant and weeds; assay type: in vivo; conditions: (highest dosage with no phytotoxicity to paddy rice)/(lowest dosage with effective level 4 on Bulrush); rice 3000-100 g/ha, Bulrush 300-10 g/ha; 21 days
Procedure, shortened: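 Scoring ran 21 days after treatment in a hothouse on a 0–4 scale (4 = 90–100%, 3 = 70–89%, 2 = 40–69%, 1 = 1–39%, 0 = none) relative to untreated plants. Post-emergence bulrush received 10, 30, 100 and 300 g/ha active ingredient. Transplanted rice received 100, 300, 1000 and 3000 g/ha to assess crop injury.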

bulrush [2] = test: Test Example 1: herbicidal efficacy on rice paddy weeds pre-emergence; assay type: in vivo, Scirpus juncoides; conditions: 21 days
false pimpernel [3] = test: as above; assay type: in vivo, Lindernia pyxidaria; conditions: 21 days
false pimpernel [4] = test: Test Example 2: herbicidal efficacy on rice paddy weeds post-emergence; assay type: in vivo, Lindernia pyxidaria; conditions: post-emergence, one leaf stage, 21 days after treatment
bulrush [5] = test: as above; assay type: in vivo, Scirpus juncoides; conditions: post-emergence, one leaf stage, 21 days after treatment
barnyard glass = test: as above; assay type: in vivo, Echinochloa crus-galli; conditions: post-emergence, one leaf stage, 21 days after treatment
Procedure, shortened: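 Efficacy on paddy weeds was scored on a 0 to 4 growth-inhibition scale: 4 for 90%-100%, 3 for 70%-89%, 2 for 40%-69%, 1 for 1%-39% and 0 for 0%. Barnyard glass was grown in clay loam in 75 cm^2 pots under 5 cm of water in a hot house. It was compared with untreated pots 21 days after treatment.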

[6] = test system: paddy rice plant (cultivar: Nihonbare); test: Test Example 3: phytotoxicity test for transplanted paddy rice plant; assay type: in vivo; conditions: transplanted rice, 21 days after treatment
Procedure, shortened: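 Clay loam soil was placed in a 75 cm^2 plastic pot and flooded to a water depth of 5 cm. Two Nihonbare paddy rice plants at the two-leaf stage were transplanted 1 cm deep and grown in a hot house. After treatment, pots stayed in the hot house for 21 days, and phytotoxicity was then graded against an untreated control.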

bulrush [7] = test: Test Example 4: low dosage test for rice paddy weeds; assay type: in vivo, Scirpus juncoides; conditions: 300 g/ha as an active ingredient; plants treated at the one leaf stage; 21 days after treatment; vs untreated control
Procedure, shortened: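 Compound applied as a formulation at 300 g/ha to one-leaf bulrush grown in flooded clay loam (5 cm water) in a hot house. After 21 days, growth inhibition versus untreated plants rated on a 0–4 scale, with 4 meaning 90–100%.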

[8] = dosage 1000 g/ha, treated 5 days after transplantation

SMILES | Selective Index [1] | Bulrush pre (herbicidal efficacy grade) (bulrush [2]; dosage 1000 g/ha) | False pimpernel pre (herbicidal efficacy grade) (false pimpernel [3]; dosage 1000 g/ha) | False pimpernel post (herbicidal efficacy grade) (false pimpernel [4]; dosage 1000 g/ha) | Bulrush post (herbicidal efficacy grade) (bulrush [5]; dosage 1000 g/ha) | Burnyard grass post (herbicidal efficacy grade) (barnyard glass; dosage 1000 g/ha) | Phytotoxicity to paddy rice [6, 8] | Herbicide effect to Bulrush (bulrush [7]) | Bulrush pre (herbicidal efficacy grade) (bulrush [2]; dosage 100 g/ha) | False pimpernel pre (herbicidal efficacy grade) (false pimpernel [3]; dosage 100 g/ha) | False pimpernel post (herbicidal efficacy grade) (false pimpernel [4]; dosage 100 g/ha) | Bulrush post (herbicidal efficacy grade) (bulrush [5]; dosage 100 g/ha) | Burnyard grass post (herbicidal efficacy grade) (barnyard glass; dosage 100 g/ha) | Phytotoxicity to paddy rice ([6]; dosage 100 g/ha as printed in the table line)
CC(C)COC(=O)N(c1ccccc1CN1CC(C)(C)SC1=O)S(=O)(=O)C(F)(F)F [Compound No. 1-185, 3-{2-[N-(isobutoxycarbonyl)-N-(trifluoromethanesulfonyl)amino]benzyl}-5,5-dimethylthiazolidin-2-one] | 33.3 | 4 (90%-100% of herbicidal efficacy or phytotoxicity) | 4 (90%-100% of herbicidal efficacy or phytotoxicity) | 4 (90%-100% of herbicidal efficacy or phytotoxicity) | 4 (90%-100% of herbicidal efficacy or phytotoxicity) | 4 (90%-100% of herbicidal efficacy or phytotoxicity) | 0 (0% of herbicidal efficacy or phytotoxicity) | 4 (90%-100% of herbicidal efficacy or phytotoxicity) | – | – | – | – | – | –
CCC1(CC)CN(Cc2ccccc2N(C(=O)OCCOC)S(=O)(=O)C(F)(F)F)C(=O)O1 [1-134] | 10 | 4 (90%-100% of herbicidal efficacy or phytotoxicity) | 4 (90%-100% of herbicidal efficacy or phytotoxicity) | 4 (90%-100% of herbicidal efficacy or phytotoxicity) | 4 (90%-100% of herbicidal efficacy or phytotoxicity) | 4 (90%-100% of herbicidal efficacy or phytotoxicity) | 1 (1%-39% of herbicidal efficacy or phytotoxicity) | 4 (90%-100% of herbicidal efficacy or phytotoxicity) | – | – | – | – | – | –
CCC1(CC)CN(Cc2ccccc2N(C(=O)OCC(C)C)S(=O)(=O)C(F)(F)F)C(=O)O1 [1-62] | 10 | 4 (90%-100% of herbicidal efficacy or phytotoxicity) | 4 (90%-100% of herbicidal efficacy or phytotoxicity) | 4 (90%-100% of herbicidal efficacy or phytotoxicity) | 4 (90%-100% of herbicidal efficacy or phytotoxicity) | 4 (90%-100% of herbicidal efficacy or phytotoxicity) | 1 (1%-39% of herbicidal efficacy or phytotoxicity) | 4 (90%-100% of herbicidal efficacy or phytotoxicity) | – | – | – | – | – | –
CC(C)COC(=O)N(c1ccccc1CN1CCOC1=O)S(=O)(=O)C(F)(F)F [Compound No. 1-2] | 3 | 4 (90%-100% of herbicidal efficacy or phytotoxicity) | 4 (90%-100% of herbicidal efficacy or phytotoxicity) | 4 (90%-100% of herbicidal efficacy or phytotoxicity) | 4 (90%-100% of herbicidal efficacy or phytotoxicity) | 4 (90%-100% of herbicidal efficacy or phytotoxicity) | 1 (1%-39% of herbicidal efficacy or phytotoxicity) | 3 (70%-89% of herbicidal efficacy or phytotoxicity) | – | – | – | – | – | –
CCCCC1(C)CN(Cc2ccccc2N(C(=O)OCC)S(=O)(=O)C(F)(F)F)C(=O)O1 (centres unmarked) [1-129] | 10 | – | – | – | – | – | – | 4 (90%-100% of herbicidal efficacy or phytotoxicity) | 2 (40%-69% of herbicidal efficacy or phytotoxicity) | 4 (90%-100% of herbicidal efficacy or phytotoxicity) | 3 (70%-89% of herbicidal efficacy or phytotoxicity) | 4 (90%-100% of herbicidal efficacy or phytotoxicity) | 3 (70%-89% of herbicidal efficacy or phytotoxicity) | 1 (1%-39% of herbicidal efficacy or phytotoxicity)
CC(C)COC(=O)N(c1ccccc1CN1CC(C)(C2CC2)OC1=O)S(=O)(=O)C(F)(F)F (centres unmarked) [1-72] | 10 | 4 (90%-100% of herbicidal efficacy or phytotoxicity) | 4 (90%-100% of herbicidal efficacy or phytotoxicity) | 4 (90%-100% of herbicidal efficacy or phytotoxicity) | 4 (90%-100% of herbicidal efficacy or phytotoxicity) | 4 (90%-100% of herbicidal efficacy or phytotoxicity) | 1 (1%-39% of herbicidal efficacy or phytotoxicity) | 4 (90%-100% of herbicidal efficacy or phytotoxicity) | – | – | – | – | – | –
COC(=O)N(c1ccccc1CN1C(=O)OC(C)(C)C1C)S(=O)(=O)C(F)(F)F (centres unmarked) [1-148] | ≧30 | 4 (90%-100% of herbicidal efficacy or phytotoxicity) | 4 (90%-100% of herbicidal efficacy or phytotoxicity) | 4 (90%-100% of herbicidal efficacy or phytotoxicity) | 4 (90%-100% of herbicidal efficacy or phytotoxicity) | 4 (90%-100% of herbicidal efficacy or phytotoxicity) | 3 (70%-89% of herbicidal efficacy or phytotoxicity) | 4 (90%-100% of herbicidal efficacy or phytotoxicity) | – | – | – | – | – | –
CC(C)C1(C)CN(Cc2ccccc2NS(=O)(=O)C(F)(F)F)C(=O)O1 (racemic) [1-101] | 10 | 4 (90%-100% of herbicidal efficacy or phytotoxicity) | 4 (90%-100% of herbicidal efficacy or phytotoxicity) | 4 (90%-100% of herbicidal efficacy or phytotoxicity) | 4 (90%-100% of herbicidal efficacy or phytotoxicity) | 4 (90%-100% of herbicidal efficacy or phytotoxicity) | 1 (1%-39% of herbicidal efficacy or phytotoxicity) | 4 (90%-100% of herbicidal efficacy or phytotoxicity) | – | – | – | – | – | –
CCC1(CC)CN(Cc2ccccc2N(C(=O)OCC(C)C)S(=O)(=O)C(F)(F)F)C(=S)O1 [1-179] | 33.3 | 4 (90%-100% of herbicidal efficacy or phytotoxicity) | 4 (90%-100% of herbicidal efficacy or phytotoxicity) | 4 (90%-100% of herbicidal efficacy or phytotoxicity) | 4 (90%-100% of herbicidal efficacy or phytotoxicity) | 4 (90%-100% of herbicidal efficacy or phytotoxicity) | 0 (0% of herbicidal efficacy or phytotoxicity) | 4 (90%-100% of herbicidal efficacy or phytotoxicity) | – | – | – | – | – | –
CC(C)OC(=O)N(c1ccccc1CN1CC(C)(C)OC1=O)S(=O)(=O)C(F)(F)F [1-76] | 30 | 4 (90%-100% of herbicidal efficacy or phytotoxicity) | 4 (90%-100% of herbicidal efficacy or phytotoxicity) | 4 (90%-100% of herbicidal efficacy or phytotoxicity) | 4 (90%-100% of herbicidal efficacy or phytotoxicity) | 4 (90%-100% of herbicidal efficacy or phytotoxicity) | 2 (40%-69% of herbicidal efficacy or phytotoxicity) | 4 (90%-100% of herbicidal efficacy or phytotoxicity) | – | – | – | – | – | –

From US20080274892A1, “Novel Haloalkylsulfonanilide Derivative, Herbicide, and Method of Use Thereof” (priority 2005, published 2008)
